Laboratory results taken from publication PMC5512079, “The sialate O-acetylesterase EstA from gut Bacteroidetes species enables sialidase-mediated cross-species foraging of 9-O-acetylated sialoglycans” (The Journal of Biological Chemistry, 2017).

Molecular target: T1, B. thetaiotaomicron NanH sialidase (NanH-His) (Bacteroides thetaiotaomicron, UniProt Q8AAK9)
T1 construct: gene BT_0455
T1 sequence (Q8AAK9 23-544): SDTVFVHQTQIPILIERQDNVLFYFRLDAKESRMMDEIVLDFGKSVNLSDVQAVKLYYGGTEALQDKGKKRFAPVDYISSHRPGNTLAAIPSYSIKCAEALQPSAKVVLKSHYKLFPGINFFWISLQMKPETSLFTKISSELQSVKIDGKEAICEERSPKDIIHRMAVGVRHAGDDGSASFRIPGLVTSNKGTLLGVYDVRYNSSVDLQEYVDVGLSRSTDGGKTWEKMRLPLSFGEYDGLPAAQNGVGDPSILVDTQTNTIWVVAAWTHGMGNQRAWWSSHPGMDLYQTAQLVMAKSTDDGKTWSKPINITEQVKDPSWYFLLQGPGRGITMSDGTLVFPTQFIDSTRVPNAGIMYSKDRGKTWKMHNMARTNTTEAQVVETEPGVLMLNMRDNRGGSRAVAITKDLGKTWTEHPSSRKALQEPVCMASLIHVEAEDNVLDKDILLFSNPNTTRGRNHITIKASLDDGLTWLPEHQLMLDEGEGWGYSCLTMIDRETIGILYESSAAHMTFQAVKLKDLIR
Test: fluorogenic sialidase assay, 4-methylumbelliferone release (ex […] nm, em […] nm)
Format: biochemical
Settings: 100 uM 4-MU-Sia, PBS pH 7.4; used to test fractions and estimate milliunits

CC(=O)N[C@H]1[C@H]([C@H](O)[C@H](O)CO)OC(Oc2ccc3c(C)cc(=O)oc3c2)(C(=O)O)C[C@@H]1O (stereo partly shown) [4-methylumbelliferyl-N-acetylneuraminic acid]
fluorogenic sialidase assay, 4-methylumbelliferone release (ex 365 nm, em 440 nm): Fractions were tested for activity with the fluorogenic sialidase substrate 4-methylumbelliferyl-N-acetylneuraminic acid
